Results on 21 molecules are retold here after patent publication US10246442B2, “4-Aminoquinazolin compounds as prolyl hydroxylase inhibitors” (JANSSEN PHARMACEUTICA NV, priority 2011, dated 2019).

Experiment [1] deals with Erythropoietin secretion, Hep-3B cells. Description: Cellular assay: EPO secretion in Hep-3B cells. As to conditions: Homo sapiens, Hep3B, 100 μM compound, 24 hours, percent of EPO secretion relative to assay control compound 7-[(4-Chloro-phenyl)-(5-methyl-isoxazol-3-ylamino)-methyl]-quinolin-8-ol, read-out: Cellular % EPO Stimulation. It counts as cell-based. The method, then:
Hep-3B cells (ATCC, Manassas, Va.) were plated in 96-well plates at 20,000 cells per well in 100 μl of DMEM containing 10% fetal bovine serum, 1% non-essential amino acids, 50 IU/mL of penicillin and 50 μg/mL of streptomycin (all cell culture reagents from Invitrogen, Carlsbad, Calif.). Twenty-four hours after plating, compounds were added and incubated for an additional 24 hours. All compounds were tested with final compound concentrations at 100 μM. Fifty microliters of the supernatant was then transferred to a human Hypoxia assay kit (Meso-Scale Discovery, Gaithersburg, Md.). Erythropoietin in the supernatant was detected according to the manufacturer's instructions as follows. EPO detection plates were blocked with 3% BSA in PBS overnight and 50 μl of the supernatant was incubated at room temperature in an orbital shaker for 2 h. Twenty-five microliters of 0.5 μg/ml anti-EPO detection antibody was added for 2 hours at room temperature in an orbital shaker. After 3 washes in PBS, 150 μl of 1× read buffer is added and the plate is then read on the MSD SECTOR instrument. Data was analyzed by determining the percent of EPO secretion in the presence of 100 μM compound relative to an assay control compound, 7-[(4-Chloro-phenyl)-(5-methyl-isoxazol-3-ylamino)-methyl]-quinolin-8-ol.

Experiment [2] addresses PHD2181-417 (Homo sapiens (Human), UniProt Q9GZT9). Description: PHD enzymatic assay ([14C]-succinic acid production). It counts as biochemical. As to conditions: purified PHD2181-417, HIF-1α peptide substrate, 30 min pre-incubation, average of results. The method, then:
Expression and Purification of PHD2181-417
The human PHD2 expression construct containing amino acids 181-417 of GenBank Accession ID NM_022051 was cloned into a pBAD vector (Invitrogen), incorporating both an N-terminal histidine tag and a Smt3-tag, both of which are cleaved by Ulp1. Protein production was achieved by expression in BL21 cells grown in Terrific Broth containing 100 μg/ml ampicillin. Cell cultures were inoculated at 37° C. and grown to an OD600 of 0.8. Cultures were induced with 0.1% arabinose and grown overnight at 20° C. with continuous shaking at 225 rpm. Cells were then harvested by centrifugation and stored at −80° C. Cell pellets were suspended in Buffer A (50 mM Tris-HCl pH 7.2, 100 mM NaCl, 100 mM L-arginine, 1 mM TCEP, 0.05% (w/v) NP-40, 50 mM imidazole) followed by the addition of lysozyme and benzonase. Cells were lysed by sonication and the lysate was cleared by centrifugation (15,000 rpm, 90 min, 4° C.). The protein was purified by nickel affinity chromatography using a HisTrap Crude FF column (GE Healthcare). Samples were eluted in Buffer A with a 50-200 mM imidazole gradient. Cleavage of the Smt tag with Ulp1 protease was achieved via overnight incubation with dialyzing against Buffer A. The PHD2181-417 sample was then passed over a second HisTrap Crude FF column (GE Healthcare) to remove uncleaved protein. The flow-through was then dialyzed into 50 mM MES pH 6.0, 1 mM TCEP, 5 mM NaCl for ion exchange chromatography on a HiTrap SP Cation Exchange column (GE Healthcare). The PHD2181-417 protein was eluted with a 0-0.2 M NaCl gradient. Fractions were pooled for further purification by size exclusion chromatography over a Superdex 75 Size Exclusion Column (GE Healthcare). Final protein was concentrated to 4 mg/ml and dialyzed in 10 mM PIPES pH 7.0, 100 mM NaCl, 0.5 mM TCEP.
(10 μM, California Peptide Research Inc., Napa, Calif.), and [5-^14C]-2-oxoglutaric acid (50 mCi/mmol, Moravek Chemicals, Brea, Calif.) in reaction buffer (40 mM Tris-HCl, pH 7.5, 0.4 mg/ml catalase, 0.5 mM DTT, 1 mM ascorbate) for 10 minutes. Compounds were pre-incubated for 30 min before starting the reaction (all test compounds were dissolved at 10 mM in 100% DMSO (w/v) and were tested with final compound concentrations at 100 μM in 1% DMSO (w/v)). The reaction was stopped by addition of 50 μl of 70 mM H3PO4 and 50 μl of 500 mM NaH2PO4, pH 3.2. Detection of [^14C]-succinic acid was achieved by separating from [5-^14C]-2-oxoglutaric acid by incubating the reaction mixture with 100 μl of 0.16 M DNP prepared in 30% perchloric acid. Next, 50 μl of unlabeled 20 mM 2-oxoglutaric acid/20 mM succinic acid, serving as carrier for the radioactivity, was added to the mixture, and was allowed to proceed for 30 minutes at room temperature. The reaction was then incubated with 50 μl of 1 M 2-oxoglutaric acid for 30 additional minutes at room temperature to precipitate the excess DNP. The reaction was then centrifuged at 2800×g for 10 minutes at room temperature to separate [^14C]-succinic acid in the supernatant from the precipitated [^14C]-dinitrophenylhydrazone. Fractions of the supernatant (400 μI) were counted using a beta counter (Beckman Coulter, Fullerton, Calif.). Inhibition of PHD2181-417 activity was measured as a decrease in succinic acid production. The IC50 values were estimated by fitting the data to a three-parameter logistic function using GraphPad Prism, version 4.02 (Graph Pad Software, San Diego, Calif.).

Sequence of PHD2181-417 (Q9GZT9 181-417): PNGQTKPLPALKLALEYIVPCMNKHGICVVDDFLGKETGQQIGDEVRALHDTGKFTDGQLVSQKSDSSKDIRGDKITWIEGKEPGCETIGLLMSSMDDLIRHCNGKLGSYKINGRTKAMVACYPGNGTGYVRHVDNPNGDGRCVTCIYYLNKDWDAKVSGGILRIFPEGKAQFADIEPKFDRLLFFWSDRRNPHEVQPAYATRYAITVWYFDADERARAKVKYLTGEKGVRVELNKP

In the case of `COCC(C)Nc1nc(-n2cc(C(=O)O)cn2)nc2cc(F)c(Oc3c(C)cccc3C)cc12` (racemic) [Example 9, (rac)-1-[6-(2,6-Dimethyl-phenoxy)-7-fluoro-4-(2-methoxy-1-methyl-ethylamino)-quinazolin-2-yl]-1H-pyrazole-4-carboxylic acid], the activation at 100 µM in experiment [1] is 86%. For the same molecule, the IC50 in experiment [2] (read-out: Enzyme pIC50 (converted)) is 0.0794 µM.
Consider `Cc1cccc(C)c1Oc1cc2c(N)nc(-n3cc(C(=O)O)cn3)nc2cc1F` [Example 1, 1-[4-Amino-6-(2,6-dimethyl-phenoxy)-7-fluoro-quinazolin-2-yl]-1H-pyrazole-4-carboxylic acid], for which, in experiment [1], the activation at 100 µM is 51%.
On to `CNc1nc(-n2cc(C(=O)O)cn2)nc2cc(F)c(Oc3c(C)cccc3C)cc12` [Example 2, 1-[6-(2,6-Dimethyl-phenoxy)-7-fluoro-4-methylamino-quinazolin-2-yl]-1H-pyrazole-4-carboxylic acid], for which the activation at 100 µM in experiment [1] came to 10%. In addition, the “Enzyme pIC50” value in experiment [2] is given as 7.2.
For `Cc1cccc(C)c1Oc1cc2c(N(C)C)nc(-n3cc(C(=O)O)cn3)nc2cc1F` [Example 3, 1-[4-Dimethylamino-6-(2,6-dimethyl-phenoxy)-7-fluoro-quinazolin-2-yl]-1H-pyrazole-4-carboxylic acid], the activation at 100 µM in experiment [1] was 68%.
For `Cc1cccc(C)c1Oc1cc2c(N3CCCCC3)nc(-n3cc(C(=O)O)cn3)nc2cc1F` [Example 4, 1-[6-(2,6-Dimethyl-phenoxy)-7-fluoro-4-piperidin-1-yl-quinazolin-2-yl]-1H-pyrazole-4-carboxylic acid], the activation at 100 µM in experiment [1] stood at 17%. The “Enzyme pIC50” value in experiment [2] amounted to 6.9.
Regarding `Cc1cccc(C)c1Oc1cc2c(N3CCCC3)nc(-n3cc(C(=O)O)cn3)nc2cc1F` [Example 5, 1-[6-(2,6-Dimethyl-phenoxy)-7-fluoro-4-pyrrolidin-1-yl-quinazolin-2-yl]-1H-pyrazole-4-carboxylic acid], the activation at 100 µM in experiment [1] was determined as 25%. Besides, the “Enzyme pIC50” value in experiment [2] is on record as 7.4.
In the case of `Cc1cccc(C)c1Oc1cc2c(Nc3ccccc3)nc(-n3cc(C(=O)O)cn3)nc2cc1F` [Example 6, 1-[6-(2,6-Dimethyl-phenoxy)-7-fluoro-4-phenylamino-quinazolin-2-yl]-1H-pyrazole-4-carboxylic acid], the activation at 100 µM in experiment [1] was found to be 22%. For the same molecule, the “Enzyme pIC50” value in experiment [2] came out at 7.4.
For the molecule `Cc1cccc(C)c1Oc1cc2c(Nc3ccccc3Cl)nc(-n3cc(C(=O)O)cn3)nc2cc1F` [Example 7, 1-[4-(2-Chloro-phenylamino)-6-(2,6-dimethyl-phenoxy)-7-fluoro-quinazolin-2-yl]-1H-pyrazole-4-carboxylic acid], the activation at 100 µM in experiment [1] worked out at 13%.
For the molecule `Cc1cccc(C)c1Oc1cc2c(NCC3CC3)nc(-n3cc(C(=O)O)cn3)nc2cc1F` [Example 15, 1-((4-Cyclopropanemethylamino)-6-(2,6-dimethylphenoxy)-7-fluoroquinazolin-2-yl)-1H-pyrazole-4-carboxylic acid], the activation at 100 µM in experiment [1] was 64%.
Still for that read-out and setting: the figure for `Cc1cccc(C)c1CNc1nc(-n2cc(C(=O)O)cn2)nc2ccc(C3CCCCC3)cc12` [Example 23, 1-[6-Cyclohexyl-4-(2,6-dimethyl-benzylamino)-quinazolin-2-yl]-1H-pyrazole-4-carboxylic acid] is 7%.
As for `CCN(CC)c1nc(-n2cc(C(=O)O)cn2)nc2cc(Cl)c(OC3CCCCC3)cc12` [Example 138, 1-(7-chloro-6-(cyclohexyloxy)-4-(diethylamino)quinazolin-2-yl)-1H-pyrazole-4-carboxylic acid], the “Enzyme pIC50” value in experiment [2] is given as 7.5.
As to `O=C(O)c1cnn(-c2nc(N3CCCC3)c3cc(OC4CCCCC4)c(Cl)cc3n2)c1` [Example 139, 1-(7-chloro-6-(cyclohexyloxy)-4-(pyrrolidin-1-yl)quinazolin-2-yl)-1H-pyrazole-4-carboxylic acid], the “Enzyme pIC50” value in experiment [2] came out at 7.1.
Consider `O=C(O)c1cnn(-c2nc(NC3CC3)c3cc(OC4CCCCC4)c(Cl)cc3n2)c1` [Example 141, 1-(7-chloro-6-(cyclohexyloxy)-4-(cyclopropylamino)quinazolin-2-yl)-1H-pyrazole-4-carboxylic acid], for which, in experiment [2], the “Enzyme pIC50” value is given as 7.0.
For the molecule `CCN(CC)c1nc(-n2cc(C(=O)O)cn2)nc2ccc(OC3CCCCC3)cc12` [Example 174, 1-(6-(cyclohexyloxy)-4-(diethylamino)quinazolin-2-yl)-1H-pyrazole-4-carboxylic acid], the activation at 100 µM in experiment [1] is 35%.
Consider `O=C(O)c1cnn(-c2nc(N3CCCC3)c3cc(OC4CCCCC4)ccc3n2)c1` [Example 175, 1-(6-(cyclohexyloxy)-4-(pyrrolidin-1-yl)quinazolin-2-yl)-1H-pyrazole-4-carboxylic acid], for which the activation at 100 µM in experiment [1] was found to be 46%.
`O=C(O)c1cnn(-c2nc(N3CCOCC3)c3cc(Cc4ccccc4)ccc3n2)c1` [Example 178, 1-(6-benzyl-4-morpholinoquinazolin-2-yl)-1H-pyrazole-4-carboxylic acid]: the “Enzyme pIC50” value in experiment [2] was 6.5.
In the case of `CN(C)c1nc(-n2cc(C(=O)O)cn2)nc2ccc(Cc3ccccc3)cc12` [Example 179, 1-(6-benzyl-4-(dimethylamino)quinazolin-2-yl)-1H-pyrazole-4-carboxylic acid], the “Enzyme pIC50” value in experiment [2] came out at 7.1.
Same read-out and setting: the figure for `CCN(CC)c1nc(-n2cc(C(=O)O)cn2)nc2ccc(Cc3ccccc3)cc12` [Example 180, 1-(6-benzyl-4-(diethylamino)quinazolin-2-yl)-1H-pyrazole-4-carboxylic acid] is 7.1; for `O=C(O)c1cnn(-c2nc(N3CCCC3)c3cc(Cc4ccccc4)ccc3n2)c1` [Example 181, 1-(6-benzyl-4-(pyrrolidin-1-yl)quinazolin-2-yl)-1H-pyrazole-4-carboxylic acid] it is 7.1; for `O=C(O)c1cnn(-c2nc(NC3CC3)c3cc(Cc4ccccc4)ccc3n2)c1` [Example 182, 1-(6-benzyl-4-(cyclopropylamino)quinazolin-2-yl)-1H-pyrazole-4-carboxylic acid] it is 7.1.
`CCN(C)c1nc(-n2cc(C(=O)O)cn2)nc2ccc(Cc3ccccc3)cc12` [Example 183, 1-(6-benzyl-4-(ethyl(methyl)amino)quinazolin-2-yl)-1H-pyrazole-4-carboxylic acid]: in experiment [2], the “Enzyme pIC50” value is recorded as 7.2.
